The values below come from patent US7414047B2, “Piperazinyl and diazapanyl benzamides and benzthioamides” (Janssen Pharmaceutica N.V., priority 2002, dated 2008).

Structures are written as SMILES. Counter-ions that a name gives are not always drawn.

For this test, the target named is T1, human histamine H3 receptor (Homo sapiens, UniProt Q9Y5N1).
T1 construct: One microgram of supercoiled H3 receptor cDNA was added to the cells and mixed; expressed in transfected cells; membranes prepared from cell pellets
In words: {3H}-N-methylhistamine binding. How it is done: Transfection of Cells with Human Histamine Receptor
A 10 cm tissue culture dish with a confluent monolayer of SK-N-MC cells was split two days prior to transfection. Using sterile technique the media was removed and the cells were detached from the dish by the addition of trypsin. One fifth of the cells were then placed onto a new 10 cm dish. Cells were grown in a 37° C. incubator with 5% CO2 in Minimal Essential Media Eagle with 10%. Fetal Bovine Serum. After two days cells were approximately 80% confluent. These were removed from the dish with trypsin and pelleted in a clinical centrifuge. The pellet was then re-suspended in 400 μL complete media and transferred to an electroporation cuvette with a 0.4 cm gap between the electrodes. One microgram of supercoiled H3 receptor cDNA was added to the cells and mixed. The voltage for the electroporation was set at 0.25 kV, the capacitance was set at 960 μF. After electroporation the cells were diluted into 10 mL complete media and plated onto four 10 cm dishes. Because of the variability in the efficiency of electroporation, four different concentrations of cells were plated. The ratios used were; 1:20, 1:10, 1:5, with the remainder of the cells being added to the fourth dish. […] After 10 days dishes were analyzed for surviving colonies of cells. Dishes with well-isolated colonies were used. Cells from individual colonies were isolated and tested. SK-N-MC cells were used because they give efficient coupling for inhibition of adenylate cyclase. The clones that gave the most robust inhibition of adenylate cyclase in response to histamine were used for further study.
{^3H}-N-methylhistamine Binding
Cell pellets from histamine H3 receptor-expressing SK-N-MC cells were homogenized in 20 mM TrisHCl/0.5 mM EDTA. Supernatants from an 800 g spin were collected, recentrifuged at 30,000 g for 30 min. Pellets were re-homogenized in 50 mM Tris/5 mM EDTA (pH 7.4). […] Filters were dried, added to 4 mL scintillation cocktail and then counted on a liquid scintillation counter. Non-specific binding was defined with 10 μM histamine.

T1 sequence (Q9Y5N1 whole entry): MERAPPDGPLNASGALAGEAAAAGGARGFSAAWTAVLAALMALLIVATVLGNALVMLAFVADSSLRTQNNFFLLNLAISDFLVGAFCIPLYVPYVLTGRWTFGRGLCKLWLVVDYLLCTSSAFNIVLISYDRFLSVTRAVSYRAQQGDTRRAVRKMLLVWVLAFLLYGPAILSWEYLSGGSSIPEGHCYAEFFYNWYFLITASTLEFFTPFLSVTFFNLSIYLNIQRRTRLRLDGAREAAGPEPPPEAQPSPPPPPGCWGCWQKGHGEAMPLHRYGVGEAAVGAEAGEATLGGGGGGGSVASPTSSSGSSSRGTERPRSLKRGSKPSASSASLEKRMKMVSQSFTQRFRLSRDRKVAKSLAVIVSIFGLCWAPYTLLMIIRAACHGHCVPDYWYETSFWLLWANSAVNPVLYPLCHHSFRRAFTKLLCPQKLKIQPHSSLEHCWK

`CCC(C)N1CCN(C(=O)c2ccc(CN3CCOCC3)cc2)CC1` (stereo not shown) [Example 51, (4-sec-Butyl-piperazin-1-yl)-(4-morpholin-4-ylmethyl-phenyl)-methanone dihydrochloride]: the Ki – broadly, the dissociation constant of the complex between target and ligand, obtained from inhibition or displacement – was 2 nM. The same measure for `CC(C)N1CCN(C(=O)c2ccc(CNc3ccc(C(F)(F)F)nc3)cc2)CC1` [Example 52, (4-Isopropryl-piperazin-1-yl)-{4-{(6-trifluoromethyl-pyridin-3-ylamino)-methyl}-phenyl}-methanone dihydrochloride]: 14 nM; for `CC(C)N1CCN(C(=O)c2ccc(CNc3ccc(Cl)cn3)cc2)CC1` [Example 53, {4-{(5-Chloro-pyridin-2-ylamino)-methyl}-phenyl}-4-isopropyl-piperazin-1-yl)-methanone dihydrochloride]: 30 nM; for `CN1CCN(C(=O)c2ccc(CN3CCCCC3)cc2)CC1` [Example 54, (4-Methyl-piperazin-1-yl)-(4-piperidin-1-ylmethyl-phenyl)-methanone dihydrochloride]: 24 nM. The same measure for `CC(C)N1CCN(C(=O)c2ccc(CNc3ccc(C(F)(F)F)cn3)cc2)CC1` [Example 55, (4-Isopropyl-piperazin-1-yl)-{4-{(5-trifluoromethyl-pyridin-2-ylamino)-methyl}-phenyl}-methanone dihydrochloride]: 49 nM. The same measure for `CC(C)N1CCN(C(=O)c2ccc(CN3CCCC(C(F)(F)F)C3)cc2)CC1` (stereo not shown) [Example 56, (4-Isopropyl-piperazin-1-yl)-{4-(3-trifluoromethyl-piperidin-1-ylmethyl)-phenyl}-methanone dihydrochloride]: 1 nM; for `CCN(CC)Cc1ccc(C(=O)N2CCN(C(C)C)CC2)cc1` [Example 57, (4-Diethylaminomethyl-phenyl)-(4-isopropyl-piperazin-1-yl)-methanone dihydrochloride]: 6 nM; for `CC(C)N1CCN(C(=O)c2ccc(CNCc3ccccc3)cc2)CC1` [Example 58, {4-(Benzylamino-methyl)-phenyl}-(4-isopropyl-piperazin-1-yl)-methanone dihydrochloride]: 3 nM. In the case of `CC(C)N1CCN(C(=O)c2ccc(CNc3ccccc3)cc2)CC1` [Example 59, (4-Isopropyl-piperazin-1-yl)-(4-phenylaminomethyl-phenyl)-methanone dihydrochloride], the affinity, expressed as Ki, was 23 nM. The same measure for `CC(C)N1CCN(C(=O)c2ccc(CN3CCCCCC3)cc2)CC1` [Example 60, (4-Azepan-1-ylmethyl-phenyl)-(4-isopropyl-piperazin-1-yl)-methanone dihydrochloride]: 1 nM.

In turn, `CC(C)N1CCN(C(=O)c2ccc(CN3CCCC3)cc2)CC1` [Example 61, (4-Isopropyl-piperazin-1-yl)-(4-pyrrolidin-1-ylmethyl-phenyl)-methanone dihydrochloride] displayed a Ki of 1 nM.

In the case of `CC(C)N1CCN(C(=O)c2ccc(CN(C)C)cc2)CC1` [Example 62, (4-Dimethylaminomethyl-phenyl)-(4-isopropyl-piperazin-1-yl)-methanone dihydrochloride], the affinity corresponds to a Ki of 5 nM. The same measure for `O=C(c1ccc(CN2CCCCC2)cc1)N1CCN(C2CCCCC2)CC1` [Example 66, (4-Cyclohexyl-piperazin-1-yl)-(4-piperidin-1-ylmethyl-phenyl)-methanone]: 1 nM; for `CC(C)N1CCN(C(=O)c2ccc(CN3CCSCC3)cc2)CC1` [Example 67, (4-Isopropyl-piperazin-1-yl)-(4-thiomorpholin-4-ylmethyl-phenyl)-methanone]: 2 nM; for `CCCN(CCOC)Cc1ccc(C(=O)N2CCN(C(C)C)CC2)cc1` [Example 68, (4-Isopropyl-piperazin-1-yl)-(4-{[(2-methoxy-ethyl)-propyl-amino]-methyl}-phenyl)-methanone]: 2 nM. As for `CCN(CCOC)Cc1ccc(C(=O)N2CCN(C(C)C)CC2)cc1` [Example 69, (4-{[Ethyl-(2-methoxy-ethyl)-amino]-methyl}-phenyl)-(4-isopropyl-piperazin-1-yl)-methanone], the inhibitory constant (Ki) amounted to 3 nM. The same measure for `COCCNCc1ccc(C(=O)N2CCN(C(C)C)CC2)cc1` [Example 70, (4-Isopropyl-piperazin-1-yl)-{4-[(2-methoxy-ethylamino)-methyl]-phenyl}-methanone]: 2 nM; for `CC(C)N1CCN(C(=O)c2ccc(CNc3ccccn3)cc2)CC1` [Example 71, (4-Isopropyl-piperazin-1-yl)-[4-(pyridin-2-ylaminomethyl)-phenyl]-methanone]: 4 nM. The same measure for `COCC(C)NCc1ccc(C(=O)N2CCN(C(C)C)CC2)cc1` (stereo not shown) [Example 72, (4-Isopropyl-piperazin-1-yl)-{4-[(2-methoxy-1-methyl-ethylamino)-methyl]-phenyl}-methanone]: 3 nM.
